Test results: patent publication US20060264460A1 (Wyeth, priority 2005, published 2006)

Target: T1, human Cot/Tpl2 kinase (Homo sapiens, UniProt P41279)
T1 construct: human Cot/Tpl2 kinase construct encoding residues 30-398; 6His (N); made in house; host or cells: Sf9 insect cells, baculovirus system (BD Biosciences)
Experiment: Tpl2/Cot kinase assay: GST-MEK1 phosphorylation detected by ELISA (DELFIA Eu)
Format: biochemical
Settings: 0.4 nM Tpl2, 35 nM GST-MEK1, 50 uM ATP, 1 h at 30° C.
How it was run: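 His-tagged human Tpl2 from Sf9 cells, Ni-affinity and size-exclusion purified (monomer). 0.4 nM Tpl2 with 35 nM GST-MEK1, 50 uM ATP, MOPS pH 7.2, 1% DMSO, 1 h at 30° C; EDTA stop. MEK1 Ser217/221 phosphorylation detected by anti-phospho-MEK1 and Eu-labelled secondary ELISA; IC50 fitted.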

T1 sequence (P41279 30-398): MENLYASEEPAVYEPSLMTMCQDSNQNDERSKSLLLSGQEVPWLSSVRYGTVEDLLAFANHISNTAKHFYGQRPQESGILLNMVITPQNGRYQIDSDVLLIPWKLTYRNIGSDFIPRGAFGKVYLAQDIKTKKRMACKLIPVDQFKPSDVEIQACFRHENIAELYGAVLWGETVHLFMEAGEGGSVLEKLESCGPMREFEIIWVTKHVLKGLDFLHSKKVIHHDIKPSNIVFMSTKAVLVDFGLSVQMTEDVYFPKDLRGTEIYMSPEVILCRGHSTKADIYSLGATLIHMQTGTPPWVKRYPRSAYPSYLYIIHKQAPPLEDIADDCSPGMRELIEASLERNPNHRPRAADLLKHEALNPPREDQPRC

| SMILES | IC50 |
| --- | --- |
| CN1CCCC(n2cc(CNc3cc(Cl)c4ncc(C#N)c(Nc5ccc(F)c(Cl)c5)c4c3)nn2)CC1 (centres unmarked) [Example 329, 8-chloro-4-[(3-chloro-4-fluorophenyl)amino]-6-({[1-(1-methylazepan-4-yl)-1H-1,2,3-triazol-4-yl]methyl}amino)quinoline-3-carbonitrile] | 0.0044 µM |
| N#Cc1cnc2c(Cl)cc(NCc3cccnc3)cc2c1Nc1ccc(F)c(Cl)c1 [Example 178, 8-chloro-4-(3-chloro-4-fluorophenylamino)-6-(pyridin-3-ylmethylamino)quinoline-3-carbonitrile] | 0.016 µM |
| Cc1cccc(CNc2cc(Cl)c3ncc(C#N)c(Nc4ccc(F)c(Cl)c4)c3c2)n1 [Example 192, 8-chloro-4-(3-chloro-4-fluorophenylamino)-6-((6-methylpyridin-2-yl)methylamino)quinoline-3-carbonitrile] | 0.17 µM |
| N#Cc1cnc2c(NC=O)cc(NCc3cccnc3)cc2c1Nc1cccc(Cl)c1 [Example 75, N-(4-(3-chlorophenylamino)-3-cyano-6-(pyridin-3-ylmethylamino)quinolin-8-yl)formamide] | 2.6 µM |
| N#Cc1cnc2ccc(NCc3ccc(F)cc3)cc2c1Nc1ccc(F)c(Cl)c1 [Example 146, 6-(4-fluorobenzylamino)-4-(3-chloro-4-fluorophenylamino)quinoline-3-carbonitrile] | 5.3 µM |
| N#Cc1cnc2c(Cl)cc(NCc3cccc(N4CCOCC4)n3)cc2c1Nc1ccc(F)c(Cl)c1 [Example 274, 8-chloro-4-[(3-chloro-4-fluorophenyl)amino]-6-{[(6-morpholin-4-ylpyridin-2-yl)methyl]amino}quinoline-3-carbonitrile] | 0.035 µM |
| N#Cc1cnc2c(Cl)cc(NCc3cn(CCN4CCOC4=O)nn3)cc2c1Nc1ccc(F)c(Cl)c1 [Example 222, 8-chloro-4-(3-chloro-4-fluorophenylamino)-6-((1-(2-(2-oxooxazolidin-3-yl)ethyl)-1H-1,2,3-triazol-4-yl)methylamino)quinoline-3-carbonitrile] | 0.01 µM |
| N#Cc1cnc2c(Br)cc(NCc3nn[nH]c3-c3cccc(F)c3)cc2c1Nc1ccc(F)c(Cl)c1 [Example 119, 8-bromo-4-[(3-chloro-4-fluorophenyl)amino]-6-({[5-(3-fluorophenyl)-1H-1,2,3-triazol-4-yl]methyl}amino)quinoline-3-carbonitrile] | 0.35 µM |

Same assay, conditions: Table 2; Tpl2/Cot kinase, GST-MEK1 substrate, 50 uM ATP

| SMILES | IC50 |
| --- | --- |
| CS(=O)(=O)c1cccc(CNc2ccc3ncc(C#N)c(NC4CCCC4)c3c2)c1 [Example 414] | 2.9 µM |
| N#Cc1cnc2ccc(NCc3ccccn3)cc2c1Nc1ccccc1 [Example 361] | 0.25 µM |
| N#Cc1cnc2ccc(NCc3ccc[n+]([O-])c3)cc2c1Nc1ccc(F)c(Cl)c1 [Example 384] | 0.13 µM |
| CN(C)CCn1cc(CNc2cc(Br)c3ncc(C#N)c(Nc4ccc(F)c(Cl)c4)c3c2)nn1 [Example 481] | 0.024 µM |
| COc1ccc(CNc2ccc3ncc(C#N)c(Nc4ccc(F)c(F)c4)c3c2)cn1 [Example 340] | 0.44 µM |

The next lines start with the values.

| IC50 | SMILES |
| --- | --- |
| 0.1 µM | N#Cc1cnc2c(Br)cc(NCc3cn(CC(F)(F)F)nn3)cc2c1Nc1ccc(F)c(Cl)c1 [Example 498] |
| 0.0048 µM | C=CCn1cnc(CNc2cc(Br)c3ncc(C#N)c(Nc4ccc(F)c(Cl)c4)c3c2)c1 [Example 551] |
| 0.16 µM | N#Cc1cnc2c(Cl)cc(NCc3cn(CCCN4CCNCC4)nn3)cc2c1Nc1ccc(F)c(Cl)c1 [Example 597] |
| 0.07 µM | CN(C)CC(c1ccccc1)n1cc(CNc2cc(Cl)c3ncc(C#N)c(Nc4ccc(F)c(Cl)c4)c3c2)nn1 (centres unmarked) [Example 574] |

Same assay, conditions: Tpl2/Cot kinase, GST-MEK1 substrate, 50 uM ATP

| SMILES | IC50 |
| --- | --- |
| CC(C)(C)OC(=O)N1CCC[C@@H]1Cn1cc(CNc2cc(Cl)c3ncc(C#N)c(Nc4ccc(F)c(Cl)c4)c3c2)nn1 [Example 887] | 0.16 µM |
| N#Cc1cnc2c(Br)cc(NCc3cn(CC4CCCNC4)nn3)cc2c1Nc1ccc(F)c(Cl)c1 (centres unmarked) [Example 718] | 0.033 µM |
| N#Cc1cnc2c(Cl)cc(NCc3cn(Cc4ccc(C(F)(F)F)cc4)nn3)cc2c1Nc1ccc(F)c(Cl)c1 [Example 756] | > 3 µM |
| N#Cc1cnc2c(Cl)cc(NCC3CCN(C(=O)c4cccnc4)CC3)cc2c1Nc1ccc(F)c(Cl)c1 [Example 850] | 0.13 µM |
| CNCCn1cc(CNc2cc(Cl)c3ncc(C#N)c(Nc4ccc(F)c(Cl)c4)c3c2)nn1 [Example 685] | 0.029 µM |
| CC(C)(C)OC(=O)N1CCN(CCCn2cc(CNc3cc(Br)c4ncc(C#N)c(Nc5ccc(F)c(Cl)c5)c4c3)nn2)CC1 [Example 764] | 1.3 µM |
| N#Cc1cnc2c(Br)cc(NCc3cn(CCOCCOCCO)nn3)cc2c1Nc1ccc(F)c(Cl)c1 [Example 741] | 0.14 µM |
| CN(C)C(=O)N1CCC[C@H]1Cn1cc(CNc2cc(Cl)c3ncc(C#N)c(Nc4ccc(F)c(Cl)c4)c3c2)nn1 [Example 900] | 0.0005 µM |
| CN(C)CCC(c1cccnc1)n1cc(CNc2cc(Cl)c3ncc(C#N)c(Nc4ccc(F)c(Cl)c4)c3c2)nn1 (centres unmarked) [Example 759] | 0.036 µM |
| CC(C)(C)OC(=O)N1CCC[C@H]1Cn1cc(CNc2cc(Cl)c3ncc(C#N)c(Nc4ccc(F)c(Cl)c4)c3c2)nn1 [Example 888] | 0.2 µM |

Same assay, conditions: Tpl2/Cot kinase, GST-MEK1 substrate, 50 uM ATP, 1 h at 30° C.; Table 2

| SMILES | IC50 |
| --- | --- |
| CN1CCCC1CCn1cc(CNc2cc(Cl)c3ncc(C#N)c(NC4CCCCCC4)c3c2)nn1 (centres unmarked) [Example 947] | 0.7 µM |
| CN(C)CCn1cc(CNc2cc(Cl)c3ncc(C#N)c(NC4CCCC4)c3c2)nn1 [Example 946] | 0.59 µM |
| CC(C)CN1C2CCC1CC(n1cc(CNc3cc(Cl)c4ncc(C#N)c(Nc5ccc(F)c(Cl)c5)c4c3)nn1)C2 (centres unmarked) [Example 1058] | 0.07 µM |
| N#Cc1cnc2c(Cl)cc(NCc3cn(CCN4CCCCCC4)nn3)cc2c1NC1CCCC2(CCCC2)C1 (centres unmarked) [Example 976] | > 3 µM |
| CC(C)(C)OC(=O)N1CCC(O)(c2cncc(CNc3cc(Cl)c4ncc(C#N)c(Nc5ccc(F)c(Cl)c5)c4c3)c2)CC1 [Example 1031] | 0.16 µM |
| CN(C)CCn1cc(CNc2cc(Cl)c3ncc(C#N)c(NCC(F)(F)F)c3c2)nn1 [Example 984] | 1.09 µM |
| N#Cc1cnc2c(Cl)cc(OCc3cn(C4CCNCC4)nn3)cc2c1Nc1ccc(F)c(Cl)c1 [Example 940] | 0.15 µM |

Target: Tpl2 (Homo sapiens, UniProt P41279)
Experiment: not given
Settings: background statement; cited from earlier work

Chain of Tpl2 (P41279 whole entry): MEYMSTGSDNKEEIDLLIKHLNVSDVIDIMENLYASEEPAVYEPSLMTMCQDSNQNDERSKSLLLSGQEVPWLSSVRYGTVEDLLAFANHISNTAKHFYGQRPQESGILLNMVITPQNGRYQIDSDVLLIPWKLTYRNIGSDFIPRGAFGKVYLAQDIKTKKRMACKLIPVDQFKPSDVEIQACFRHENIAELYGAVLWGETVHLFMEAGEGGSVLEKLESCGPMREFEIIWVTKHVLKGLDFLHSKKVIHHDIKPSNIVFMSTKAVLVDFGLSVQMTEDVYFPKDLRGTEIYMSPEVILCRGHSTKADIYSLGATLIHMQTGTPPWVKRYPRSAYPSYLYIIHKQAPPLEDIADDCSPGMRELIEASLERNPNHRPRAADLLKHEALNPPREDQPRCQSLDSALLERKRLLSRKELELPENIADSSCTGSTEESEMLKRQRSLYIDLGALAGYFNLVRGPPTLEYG

| SMILES | inhibition of Tpl2 |
| --- | --- |
| CN[C@@H]1C[C@H]2O[C@@](C)([C@@H]1OC)n1c3ccccc3c3c4c(c5c6ccccc6n2c5c31)C(=O)NC4 [staurosporine] | not inhibited |
